Drawing on ChEMBL document CHEMBL1140730, “Validation of diacyl glycerolacyltransferase I as a novel target for the treatment of obesity and dyslipidemia using a potent and selective small molecule inhibitor” (J Med Chem, 2008), this text covers IC50 for three molecules.

Usually IC50 stands for the concentration that gives 50% inhibition.

For this assay, the target named is T1, Diacylglycerol O-acyltransferase 1 (Mus musculus, UniProt Q9Z2A7).
T1 sequence (Q9Z2A7 whole entry): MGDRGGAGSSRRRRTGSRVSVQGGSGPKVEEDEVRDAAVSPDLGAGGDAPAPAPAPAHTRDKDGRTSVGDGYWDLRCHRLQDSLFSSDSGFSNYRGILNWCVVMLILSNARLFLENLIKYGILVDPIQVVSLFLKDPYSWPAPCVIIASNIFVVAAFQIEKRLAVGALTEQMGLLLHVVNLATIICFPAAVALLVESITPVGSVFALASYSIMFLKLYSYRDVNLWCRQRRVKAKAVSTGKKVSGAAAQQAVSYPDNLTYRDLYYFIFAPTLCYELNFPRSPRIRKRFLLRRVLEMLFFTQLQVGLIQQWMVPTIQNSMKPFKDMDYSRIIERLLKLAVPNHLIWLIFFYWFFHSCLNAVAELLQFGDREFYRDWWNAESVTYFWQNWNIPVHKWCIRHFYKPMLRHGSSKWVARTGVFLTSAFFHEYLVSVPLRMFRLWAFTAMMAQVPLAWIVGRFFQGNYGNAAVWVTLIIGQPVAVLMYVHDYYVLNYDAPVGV
Nature of the assay: Inhibition of mouse recombinant DGAT1 expressed in Sf9 cells.

For `O=C(O)[C@@H]1CCC[C@H]1C(=O)c1ccc(-c2ccc(Nc3nc4ccc(OC(F)(F)F)cc4s3)c(F)c2)cc1`, the half-inhibitory concentration (IC50) was found to be 207 nM.
With `O=C(Nc1ccc(-c2ccc(C(=O)[C@@H]3CCC[C@H]3C(=O)O)cc2)cc1)Nc1cccc(C(F)(F)F)c1` the figure was 17 nM; with `O=C(Nc1ccc(-c2ccc(C(=O)[C@@H]3CCC[C@H]3C(=O)O)cc2)cc1)Nc1cc(C(F)(F)F)ccc1F`, 21 nM.
